What is called IC50 is the concentration needed to halve the response being measured. Higher therefore signals weaker potency in that assay.

SMILES strings stand for the structures.

One test has as its target T1, bovine lung SSAO (Bos taurus, UniProt Q9TTK6).
T1 construct: and bovine lung SSAO by compounds of the invention; from tissue; host or cells: bovine lung
T1 sequence (Q9TTK6 1-763): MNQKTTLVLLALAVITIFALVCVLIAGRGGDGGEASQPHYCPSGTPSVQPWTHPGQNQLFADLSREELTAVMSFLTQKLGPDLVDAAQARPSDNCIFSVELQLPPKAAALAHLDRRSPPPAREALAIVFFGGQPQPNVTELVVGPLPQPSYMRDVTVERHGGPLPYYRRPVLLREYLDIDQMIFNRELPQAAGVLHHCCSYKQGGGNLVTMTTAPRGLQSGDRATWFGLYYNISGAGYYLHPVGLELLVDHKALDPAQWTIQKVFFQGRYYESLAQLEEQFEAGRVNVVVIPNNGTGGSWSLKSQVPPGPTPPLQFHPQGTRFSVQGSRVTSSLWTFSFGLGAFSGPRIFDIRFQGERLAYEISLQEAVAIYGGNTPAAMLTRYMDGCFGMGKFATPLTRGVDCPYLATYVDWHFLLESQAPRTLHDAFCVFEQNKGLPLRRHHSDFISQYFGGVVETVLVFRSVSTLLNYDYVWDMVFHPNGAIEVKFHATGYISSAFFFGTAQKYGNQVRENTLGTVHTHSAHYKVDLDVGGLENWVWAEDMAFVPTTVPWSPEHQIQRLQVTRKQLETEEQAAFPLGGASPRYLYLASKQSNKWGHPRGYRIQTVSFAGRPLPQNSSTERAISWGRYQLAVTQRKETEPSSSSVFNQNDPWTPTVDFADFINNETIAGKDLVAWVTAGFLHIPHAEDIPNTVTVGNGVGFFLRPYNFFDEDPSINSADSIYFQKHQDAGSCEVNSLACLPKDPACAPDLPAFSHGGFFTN
In words: Inhibition of semicarbazide sensitive amine oxidase (SSAO), radiochemical. It counts as biochemical.

For the next test, the target named is T2, ratMAO-A (Rattus norvegicus, UniProt P21396).
T2 sequence (P21396 1-526): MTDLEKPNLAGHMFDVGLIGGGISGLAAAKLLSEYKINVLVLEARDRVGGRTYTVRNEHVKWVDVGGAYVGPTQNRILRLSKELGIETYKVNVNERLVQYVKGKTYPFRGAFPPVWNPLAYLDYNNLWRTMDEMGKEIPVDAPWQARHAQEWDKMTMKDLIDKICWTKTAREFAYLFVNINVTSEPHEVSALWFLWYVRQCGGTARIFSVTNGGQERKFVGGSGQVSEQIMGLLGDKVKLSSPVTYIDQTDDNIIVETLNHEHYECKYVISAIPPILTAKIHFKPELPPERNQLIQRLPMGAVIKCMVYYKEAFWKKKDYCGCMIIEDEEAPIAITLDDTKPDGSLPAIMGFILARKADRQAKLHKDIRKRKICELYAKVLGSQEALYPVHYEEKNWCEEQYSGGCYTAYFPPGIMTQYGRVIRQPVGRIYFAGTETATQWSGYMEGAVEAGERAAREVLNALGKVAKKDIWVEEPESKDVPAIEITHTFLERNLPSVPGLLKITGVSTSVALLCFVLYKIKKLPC
In words: MAO-A inhibition, radiometric method of Fowler and Tipton (14C 5-HT). On the set-up: MAO-A and MAO-B activities were determined in rat brain homogenate; from tissue; host or cells: rat brain homogenate per the methods. It counts as biochemical.

Test [1] can be described thus: Metal binding assay, spectrophotometric detection of Fe(III) complex. It counts as physicochemical. The following applies: 10 µM, Tris buffer pH7.4, Fe2(SO4)3 6.25 and 12.5 µM. As for the experimental part: Lineweaver-Burk reciprocal plots of initial velocity and substrate concentrations (0.1-1 mM) are presented. […] Lineweaver-Burk reciprocal plots of initial velocity and substrate concentrations (0.1-1 mM) are presented. […] Lineweaver-Burk reciprocal plots of initial velocity and substrate concentrations (0.1-1 mM) are presented. […] Three consecutive centrifuges were performed with buffer. […] 5 µM). All solution were made using Tris buffer pH7.4. […] 5 µM). All solution were made using Tris buffer pH7.4. […] 5 µM). All solution were made using Tris buffer pH7.4. […]
It is known that 8-quinolinol is a strong chelator for biometals such iron and copper. This is an important precondition for the antioxidative-type drugs because it is the excessive iron stores and iron-mediated generation of free radicals in the brain that are thought to be associated with neurodegenerative diseases. Therefore, only chelators with a higher selectivity for iron over copper are expected to chelate iron instead of copper and have potential neuroprotective effects. […] A spectrophotometric method is used for measurement of the copper/iron-complexes stability constants of the compounds.
The metal binding assay was performed by the spectrophotometric detection of the formation of Fe(III)- and Cu(II)-6 complex.

On bovine lung SSAO, `C#CCN(Cc1ccc(O)c2ncccc12)C(C#N)CCC1CCN(Cc2ccccc2)CC1` (stereo not drawn) [Compound 6, 4-(1-benzylpiperidin-4-yl)-2-(((8-hydroxyquinolin-5-yl)methyl)(prop-2-yny)amino)butanenitrile] gave an IC50 of 2.01 ± 0.5 µM. Moreover, on ratMAO-A, it took 6.16 ± 0.7 µM to reach half-maximal inhibition (IC50), the “fold less active than M-30 for the inhibition of MAO-A” value came out at 166 fold and the “fold more active than donepezil 1 for MAO-A” value was determined as 138 fold. Also, the “formation of Fe(III)-6 complex, UV-vis spectrum change” value in test [1] (few minutes after addition) was “no significative changes in the spectrum were observed”. Besides, in test [1] (overnight incubation), the “formation of Fe(III)-6 complex, UV-vis spectrum change” value is given as “bathocromic shift of the 240nm-band to the appearance of another one at 250nm”.
